Reference: patent US20210137935A1, “CORTICOTROPIN RELEASING FACTOR RECEPTOR ANTAGONISTS” (Spruce Biosciences, Inc., priority 2017, published 2021)
In brackets after ≈: the same amount, converted by molar mass.

Experiments:
[1] = Phase 1 safety and tolerability (Study 1 and Study 2); type: in vivo, human; conditions: healthy subjects
Text: Study 1 was the first-in-human study that investigated the safety, tolerability, and PK of single-escalating doses of Compound 1, given orally, to healthy adult subjects. […] The data from this study were used for the selection of doses for Study 2.
(§1) The 2-part multiple-dose study, Study 2, determined the safety and tolerability of repeated daily doses of Compound 1 and investigated the effects on biomarkers of relevance for the treatment of alcohol dependence.
The safety of Compound 1 was evaluated in 2 Phase 1 studies in healthy adult volunteers (Study 1 and Study 2). In both studies, adverse events (AEs), clinical laboratory tests, vital signs (supine blood pressure and pulse rate), and electrocardiograms (ECGs) were evaluated. Overall, in Study 1, Compound 1 was well-tolerated.

[2] = test system: Androstenedione; assay: Phase 2 study in adults with classic CAH: Androstenedione; type: in vivo, human; conditions: patients with classic CAH
Text: (§2) Cohort A of the Phase 2 Study includes a 6-week, multiple-dose, dose escalation study of Compound 1 for the treatment of adults with classic CAH. After screening, eligible patients will be enrolled into a 6-week treatment period followed by a 4-week washout/safety follow-up period.
(§3) This cohort will be conducted in approximately 9 patients, who will receive Compound 1 daily for up to 6 weeks. Compound 1 will be administered as an oral daily dose. Patients will undergo titration of Compound 1 through three escalating dosage strengths at 2-week intervals. Patients will have overnight PK/PD assessments performed at baseline, which include an pre-dose overnight assessment and a post-dose overnight assessment for PK/PD following administration of the first dose. At the end of each 2-week dosing period, patients will return for single overnight visits for steady-state PK/PD assessments. A follow-up outpatient visit will occur 30 days after their last dose. Upon completion of the initial cohort (Cohort A), the study will proceed to a multiple ascending dose (MAD) design with up to 3 sequential cohorts (Cohorts B, C, and D) to further evaluate the safety, PK, and PD of various SPR001 dosing regimens and to identify an optimal dose regimen. Each cohort will undergo a 2-week run-in period, a 2-week treatment period, and a 30-day washout and safety follow-up period. During the run-in period, which will occur during screening, subjects will document in a paper diary each dose of glucocorticoid medication taken, the time of each meal, and the time they went to bed and woke up each day, to ensure compliance with background glucocorticoid regimens and the stability of their daily routine.
(§4) • 3. To explore the dose(s) of Compound 1 that cause pharmacodynamics changes in plasma concentrations of ACTH, androstenedione, and testosterone, as measured by the absolute and percent change from baseline by dose. • 4. To determine pharmacokinetics of Compound 1 in subjects with CAH. • 5. To explore potential relationships between pharmacodynamics and pharmacokinetics. […]

[3] = test system: ACTH; assay: Phase 2 study in adults with classic CAH: ACTH; type: in vivo, human; conditions: patients with classic CAH
Text: as §2, §3, §4

[4] = Solubility in different aqueous media (24 hour at room temperature); type: physicochemical
[5] = Study 2 Part A: multiple-dose (14 days) pharmacokinetics in healthy adult volunteers; type: in vivo, human; conditions: for Cmax: fed; for Effective t1/2: half-life calculated by accumulation ratio; for Tmax: median; for WT-norm Claa/F: weight normalized
Method: as §1
PK were also evaluated in the multiple-dose, dose-escalation study, Study 2. In Part A of the study, subjects were divided into 3 cohorts and received 50, 150, or 200 mg Compound 1 or placebo for 14 consecutive days (at least 6 subjects received Compound 1 and 2 subjects received placebo in each cohort). […] All dosing occurred in the fed state. An assessment of diurnal cortisol levels, plus when under conditions of glucose clamp, were also carried out both prior to and during the dosing period.
Consistent with the single-dose study (Study 1), concentrations appeared to decline in a bi-exponential manner, characterized by a rapid decrease within the first 24 hours. […] The Tmax appeared to be consistent across doses. Overall half-lives, weight normalized CL/F and V/F were consistent for 150 and 200 mg. However, the values for these latter 2 parameters were almost doubled at the 50-mg dose level. Variability (CV %) for apparent clearance and volume of distribution were large and not reduced with weight-normalization.
Table 8 presents the results of the dose proportionality assessment for the AUC0-24 and Cmax over the tested dose range.

[6] = 50 mg daily, Day 14, geometric mean
[7] = 150 mg daily, Day 14, geometric mean
[8] = 200 mg daily, Day 14, geometric mean

CCC(CC)c1cc(C)nc2c(-c3sc(N4CCOCC4)nc3Cl)c(C)nn12 [Compound 1, 3-(4-Chloro-2-(morpholin-4-yl)thiazol-5-yl)-7-(1-ethylpropyl)-2,5-dimethylpyrazolo(1,5-a)pyrimidine]
tolerability ([1]; Study 1, single oral doses up to 800 mg): well-tolerated | tolerability ([1]; Study 2, multiple doses up to 200 mg): generally well tolerated | subjects with more than 25% reduction in Androstenedione [2]: 60% | subjects within normal reference range (Androstenedione) after treatment [2]: 50% | subjects with reduction in Androstenedione ([2]; at various doses): 100% | subjects in the normal range (ACTH) after treatment [3]: 40% | subjects with more than 25% reduction in ACTH [3]: 70% | subjects with reduction in ACTH [3]: 80% | Solubility Description ([4]; 0.001N HCl, equilibrium pH 3.36): Insoluble | Solubility Description ([4]; 0.01N HCl, equilibrium pH 2.06): Insoluble | Solubility Description ([4]; 0.1N HCl, equilibrium pH 1.06): insoluble | Solubility Description ([4]; 0.1N NaOH, equilibrium pH 11.65): Insoluble | Solubility Description ([4]; FaSSIF, equilibrium pH 5.16): insoluble | Solubility Description ([4]; FaSSIF, equilibrium pH 6.73): Insoluble | Solubility Description ([4]; SGF, equilibrium pH 2.25): Insoluble | Solubility Description ([4]; Water, equilibrium pH 7.78): insoluble | Solubility Description ([4]; pH 4.5 Acetate (USP), equilibrium pH 4.65): Insoluble | Solubility Description ([4]; pH 6.0 Phosphate (USP), equilibrium pH 6.08): Insoluble | Solubility Description ([4]; pH 7.5 Phosphate (USP), equilibrium pH 7.57): Insoluble | Solubility ([4]; pH 7.5 Phosphate (USP), equilibrium pH 7.57, n = 2, 24 hour, room temperature): 0.6 µg/mL (≈ 1.43 µM) | solubility at 24 h ([4]; water, thermodynamic from solid): < 2 µg/mL | Cmax [5, 6]: 50.3 ng/mL | AUC0-24 h [5, 6]: 273 ng·h/mL | AUC0-∞ [5, 6]: 980 ng·h/mL | CLaa/F [5, 6]: 183 L/h | Cavg [5, 6]: 11.4 ng/mL | Effective t1/2 [5, 6]: 37.7 h | Tmax ([5]; 50 mg daily, Day 14): 5.00 h | WT-norm Claa/F [5, 6]: 48 mL/min/kg | RA (accumulation ratio, Day 14 AUC0-24/Day 1 AUC0-24) ([5]; 50 mg daily, geometric mean): 2.80 | Cmax ([5]; 50 mg, Day 1, geometric mean): 22.7 ng/mL | AUC0-24 h ([5]; 50 mg, Day 1, geometric mean): 97.6 ng·h/mL | Tmax ([5]; 50 mg, Day 1): 4.52 h | Cmax [5, 7]: 222 ng/mL | AUC0-24 h [5, 7]: 1480 ng·h/mL | AUC0-∞ [5, 7]: 4680 ng·h/mL | CLaa/F [5, 7]: 101 L/h | Cavg [5, 7]: 61.7 ng/mL | Effective t1/2 [5, 7]: 32.7 h | Tmax ([5]; 150 mg daily, Day 14): 5.00 h | WT-norm Claa/F [5, 7]: 23.7 mL/min/kg | RA (accumulation ratio, Day 14 AUC0-24/Day 1 AUC0-24) ([5]; 150 mg daily, geometric mean): 2.51 | Cmax ([5]; 150 mg, Day 1, geometric mean): 127 ng/mL | AUC0-24 h ([5]; 150 mg, Day 1, geometric mean): 590 ng·h/mL | Tmax ([5]; 150 mg, Day 1): 5.00 h | Cmax [5, 8]: 314 ng/mL | AUC0-24 h [5, 8]: 2040 ng·h/mL | AUC0-∞ [5, 8]: 5660 ng·h/mL | CLaa/F [5, 8]: 98 L/h | Cavg [5, 8]: 85.0 ng/mL | Effective t1/2 [5, 8]: 52.0 h | Tmax ([5]; 200 mg daily, Day 14): 5.00 h | WT-norm Claa/F [5, 8]: 25 mL/min/kg | RA (accumulation ratio, Day 14 AUC0-24/Day 1 AUC0-24) ([5]; 200 mg daily, geometric mean): 3.65 | Cmax ([5]; 200 mg, Day 1, geometric mean): 143 ng/mL | AUC0-24 h ([5]; 200 mg, Day 1, geometric mean): 559 ng·h/mL | Tmax ([5]; 200 mg, Day 1): 5.00 h | Vd/F at 14 days ([5]; human, plasma, oral, 50 mg daily, Day 14, geometric mean, read-out: Vz/F): 33500 L
